Assay results: patent publication US12590961B2, “Quantum dot conjugated virus spike protein for cell-based bio-sensing systems and drug screening” (priority 2020, dated 2026)

Tested on: ACE2-GFP HEK293T cells
Type: cell-based, human

Compound: O=C(N/N=C/c1cc(O)c(O)cc1O)c1cc2ccccc2cc1O [Dyngo-4a]
- blocking of endo(RBD-ACE2), QD608-RBD induced translocation of ACE2-GFP: robustly blocked
- effect on ACE2-GFP localization, compound alone: did not affect the ACE2-GFP localization
